Experimental data as given in patent USRE40594E1, “Inhibitors of the bitter taste response” (Mount Sinai School of Medicine of New York University, priority 1998, dated 2008).
“Also recorded” adds a separate entry of the source.

Experiments:
[1] = test system: bovine taste receptor cell membranes (taste receptors) with transducin; assay: G protein activation assay (trypsin sensitivity): activation of transducin by bitter tastant plus taste membranes; format: biochemical, Bovine (Bos primigenius)
Excerpt: Taste receptor is contacted with gustducin or transducin and tastant, in the presence or absence of test inhibitor, under conditions suitable for activation of the G-protein present. […] In specific non-limiting embodiments, a subunits of transducin or gustducin may be combined with βγ subunits prior to this step, as set forth above. To the reaction mixture comprising taste receptors and gustducin or transducin, test inhibitor and/or bitter tastant may be added, and the resulting solution incubated to permit interaction of the elements.
In preferred embodiments, activation is assessed by a trypsin digestion assay. […] In a specific, non-limiting example, to perform a trypsin digestion assay according to the invention, TPCK-treated trypsin (1:25 trypsin to total protein in the reaction mixture) may be added, and the digestion may be performed at room temperature for about 15 minutes and stopped by adding soybean trypsin inhibitor (6:1 mol/mol inhibitor to trypsin). […] The separated polypeptides may then be transferred by electro-blotter to a poly (vinylidene difluoride) membrane blocked by the addition of 5% BLOTTO [50 mM Tris-HCI, pH 7.4/100 mM NaCl/5% nonfat dry milk], (30 min). G-protein peptides may then be visualized by binding of antibody directed toward transducin or gustducin, followed, for example, by binding of a detectably labeled secondary antibody. If a horseradish peroxidase-labeled secondary antibody is used, binding may be visualized by developing with bicinchoninic acid staining reagents and exposure to x-ray film.
G Protein Activation Assays. Bovine (Bos primigenius) tongues were collected fresh from a local slaughterhouse and transported on ice to the laboratory. Circumvallate papillae were hand dissected, frozen in liquid nitrogen, and stored at −80° C. until use. […] The pelleted membranes were rinsed twice, resuspended in homogenization buffer lacking protease inhibitors, and further homogenized by 20 passages through a 25-gauge needle. Aliquots were either flash frozen or stored on ice until use. […] The separated polypeptides were transferred by electro-blotter to a poly (vinylidene difluoride) membrane, which was blocked by the addition of 5% BLOTTO [50 mM Tris-HCI, pH 7.4/100 mM NaCl/5% nonfat dry milk], (30 min), then transducin peptides were visualized by binding of transducin antiserum and horseradish peroxidase-labeled goat anti-rabbit secondary antibody, followed by developing with bicinchoninic acid staining reagents from Bio-Rad and exposure to x-ray film.
Chemicals. All bitter tastant and buffer chemicals were of the highest purity available and were purchased either from Sigma or Boehringer Mannheim, unless otherwise noted. […] The rabbit polyclonal antitransducin antibody was a kind gift of Mel Simon and John Watson (California Institute of Technology, Pasadena, Calif.).

[2] = test system: glossopharyngeal nerve responses of C57BL/6J mice; assay: Glossopharyngeal nerve recording on lingual stimulation with tastants; format: in vivo; settings: inhibitor 0.1 mM
Method: Nerve Recording. Glossopharyngeal nerve responses were recorded from male C57BL/6J mice as previously described (Ninomiya, Y., et al., 1997, Am. J. Physiol. (London) 272:R1002-RI006). Each mouse was anesthetized with intraperitoneal injection of sodium pentobarbital (40-50 mg/kg) and maintained at a surgical level of anesthesis with supplemental injections of the drug. The trachea was cannulated, and the mouse was then fixed in the supine position with a head holder to allow dissection of the glossopharyngeal nerve. The hypoglossal nerve was transected bilaterally to prevent inadvertent tongue movements. The right glossopharyngeal nerve was exposed by removal of the digastric muscle and posterior horn of the hyoid bone. The glossopharyngeal nerve was then dissected free from underlying tissues and cut near its entrance to the posterior foramen lacerum. The entire nerve was placed on a silver wire electrode for whole nerve recording. An indifferent electrode was positioned nearby in the wound. […] Whole nerve responses were integrated by using an RMS-DC converter (Hendrick, Tallahassee, Fla.) with a time constant of 0.5 s. For chemical stimulation of the circumvallate and foliate papillae, an incision was made on each side of the animal's face from the comer of the mouth to just above the angle of the jaw, the papillae were exposed, and their trenches opened via slight tension applied through a small suture sewn in the tip of the tongue. Tastant solutions were delivered to the tongue by gravity flow, and flowed over the tongue for a controlled period. The stability of each preparation was monitored by the periodic application of 0.1 M NH4Cl. A recording was considered to be stable when the 0.1 M NH4Cl response magnitudes at the beginning and end of each stimulation series deviated by no more than 15%. Only responses from stable recordings were used in the data analysis. In the analysis of whole nerve responses, the magnitudes of the integrated response at 20, 25, 30, 35. and 40 s after stimulus onset were measured and averaged to generate tonic responses: the tonic response represents the sustained nerve response to continuous tastant stimulation of taste receptor cells. The relative tonic response for each stimulus was obtained by normalization to the response from 0.1 M NH4Cl (the tonic response of NH4Cl was defined as 1.0). Student's t test was used for statistical analysis.

## Nc1nc2c(ncn2[C@@H]2O[C@H](COP(=O)(O)O)[C@@H](O)[C@H]2O)c(=O)[nH]1 [GMP, reference compound]
[1]; DEN, QUI and other bitter compounds, concentrations not given
  inhibition of in vitro activation of transducin (G-protein) by taste membranes plus bitter compounds, summary statement: did not
[1]; concentrations not given
  inhibition of taste membrane activation of transducin in response to other bitter tastants (than DEN): did not inhibit
[1]; inhibitor 0.25, 0.5, 1.25, 2.5, 5.0 mM, DEN 5.0 mM, shift from 32-kDa to 23-kDa fragments, FIG. 1A/1E
  inhibition of activation of transducin by DEN plus bovine taste receptor membranes: does not inhibit; also recorded: did not inhibit
[2]; 1.0 mM ATR, FIGS. 4A-C
  inhibition of glossopharyngeal nerve responses to atropine: had no effect
[2]; 1.0 mM SPA, FIGS. 4A-C, 4I (P<0.001)
  inhibition of glossopharyngeal nerve responses to sparteine: had no effect
[2]; 1.0 mM STR, FIGS. 4A-C
  inhibition of glossopharyngeal nerve responses to strychnine: had no effect
[2]; 5.0 mM DEN, FIGS. 4A-C
  inhibition of glossopharyngeal nerve responses to DEN: had no effect
[2]; QUI 0.1 and 1.0 mM, FIGS. 4D-F
  inhibition of glossopharyngeal nerve responses to QUI: had no effect
